Read-outs that look alike come from different tables or passages of the source.
Columns and labels:
[1] = Adverse events, vital signs, clinical laboratory tests, electrocardiogram; format: in vivo, human; conditions: 12 healthy subjects; except one subject with mild pharyngitis, which resolved
Method: An open-label, two-period, single sequence clinical study was conducted. After an overnight fast and drinking 200 mL of water one hour before drug administration, eligible subjects were administered with a capsule of dabigatran etexilate 150 mg ([…]®) on the first day of the study. Blood samples for pharmacokinetic and pharmacodynamic analyses were obtained using EDTA tubes and citrate tubes, respectively. […] Subjects remained at fasting stage until 4 h after the administration. […] To ensure compliance, subjects visited the study site for every drug administration. […] Blood samples were obtained at the same time point scheduled as the first day of the study. Adverse events were collected during the entire study period. This study was conducted in accordance with the Declaration of Helsinki, good clinical practice, and local regulation.

[2] = system: coagulation; test: Coagulation assay (aPTT, PT, dPT, TT, fibrinogen) in plasma of dosed subjects; format: in vivo, human
Method: An open-label, two-period, single sequence clinical study was conducted. After an overnight fast and drinking 200 mL of water one hour before drug administration, eligible subjects were administered with a capsule of dabigatran etexilate 150 mg ([…]®) on the first day of the study. Blood samples for pharmacokinetic and pharmacodynamic analyses were obtained using EDTA tubes and citrate tubes, respectively. […] Subjects remained at fasting stage until 4 h after the administration. […] To ensure compliance, subjects visited the study site for every drug administration. […] Blood samples were obtained at the same time point scheduled as the first day of the study. Adverse events were collected during the entire study period. This study was conducted in accordance with the Declaration of Helsinki, good clinical practice, and local regulation. The study was approved by the Institutional Review Board at Korea University Guro Hospital (2018GR0336, date of approval: 11 October 2018) and registered at ClinicalTrials.gov (NCT03728101). Anticoagulant assays of aPTT, PT, dPT, TT, and fibrinogen were measured using STA® Compact Max (Stago, Asnieres, France) according to the manufacturer's instructions. […] To measure aPTT, 50 μL of plasma sample was placed in a cuvette in the presence of STA®-PTT (50 μL) and 50 μL of 0.025 M CaCl2. For fibrinogen, 7.5 μL of plasma which was automatically diluted with Owren-Koller buffer was placed into a cuvette and then 50 μL of […] was added. For pharmacodynamic assessment, Phoenix Winnonlin® version 8.3 (Pharsight, Mountain View, CA, USA) was used to calculate AUEC with the linear trapezoidal method and Rmax was directly determined from individual profiles.

[3] = cited from earlier work
[4] = Pharmacokinetics of dabigatran etexilate, dabigatran and dabigatran acylglucuronide in plasma after 150 mg dabigatran etexilate with or without simvastatin; format: in vivo, human; conditions: for CL/F / AUC(0-inf) / AUC(0-t) / half-life / Cmax / MRT: mean (SD); for AUClast with simvastatin as % of value when administered alone / Cmax with simvastatin as % of value when administered alone: co-administered with simvastatin vs alone; for increase of AUClast after simvastatin co-administration: compared to dabigatran administered alone; for Cmax: read-out: Cmax; for MRT: read-out: MRT; for Tmax: median (min–max)
Method: An open-label, two-period, single sequence clinical study was conducted. After an overnight fast and drinking 200 mL of water one hour before drug administration, eligible subjects were administered with a capsule of dabigatran etexilate 150 mg ([…]®) on the first day of the study. Blood samples for pharmacokinetic and pharmacodynamic analyses were obtained using EDTA tubes and citrate tubes, respectively. […] Subjects remained at fasting stage until 4 h after the administration. […] To ensure compliance, subjects visited the study site for every drug administration. […] Blood samples were obtained at the same time point scheduled as the first day of the study. Adverse events were collected during the entire study period. This study was conducted in accordance with the Declaration of Helsinki, good clinical practice, and local regulation. The study was approved by the Institutional Review Board at Korea University Guro Hospital (2018GR0336, date of approval: 11 October 2018) and registered at ClinicalTrials.gov (NCT03728101). Separate plasma samples were kept frozen below -70 °C until analysis. Plasma concentrations of dabigatran etexilate, dabigatran, and dabigatran acylglucuronide were quantified using a high-performance liquid chromatography (Nanospace series SI-2, Shiseido Co., Ltd., Tokyo, Japan) coupled with tandem mass spectrometry (API4000, AB SCIEX LLC, Framingham, MA, USA) method. The method was validated in terms of selectivity, linearity, precision, accuracy, recovery, matrix effect, and stability prior to the analysis. In brief, 100 μL of plasma samples were deproteinized using 400 μL of acetonitrile and centrifuged at 13,000× g for 20 min. Dabigatran-d3 was used as an internal standard. The supernatants were evaporated and then dissolved in a 300 μL mobile phase consisting of acetonitrile and 10 mM ammonium formate (215:85, v/v). These samples were injected onto an Atlantis HILIC SilicaTM column (2.1 mm × 150 mm, 3 μm, Waters, Milford, MA, USA) at a flow rate of 0.3 mL/min. The mass spectrometer equipped with an electrospray ionization source was operated in a positive ion mode. Selected ion pairs of m/z 629.464→290.100 for dabigatran etexilate, m/z 472.300→289.100 for dabigatran, m/z 648.382→289.100 for dabigatran acylglucuronide were detected. […] Pharmacokinetic parameters of dabigatran etexilate, dabigatran, and dabigatran acylglucuronide were derived from noncompartmental analysis using Phoenix Winnonlin® version 8.3 (Certara, Princeton, NJ, USA). Observed values from individual time-concentration profiles were used for Cmax and Tmax. Area under the time-concentration curve (AUC) was calculated using linear-up log-down trapezoidal rule. The AUC from 0 h to infinity (AUCinf) was calculated as follows: AUCinf = AUC + Ct/ke, where Ct was the last plasma concentration and ke was the elimination rate constant. […] Mean residence time (MRT) was calculated as area under the moment curve from time of dosing to the last measurable concentration divided by AUClast. All statistical analyses were performed using SAS® version 9.4 (SAS Institute Inc., Cary, NC, USA). Descriptive statistics were used to summarize demographic, pharmacokinetic, and pharmacodynamic data. A linear mixed effects model was used to compare Cmax, AUClast, and AUCinf between two treatment periods.

[5] = system: recombinant CES1A1; conditions: cited from earlier work
[6] = system: thrombin generation; test: Thrombin generation assay (TGA) in plasma of dosed subjects; format: in vivo, human
Method: An open-label, two-period, single sequence clinical study was conducted. After an overnight fast and drinking 200 mL of water one hour before drug administration, eligible subjects were administered with a capsule of dabigatran etexilate 150 mg ([…]®) on the first day of the study. Blood samples for pharmacokinetic and pharmacodynamic analyses were obtained using EDTA tubes and citrate tubes, respectively. […] Subjects remained at fasting stage until 4 h after the administration. […] To ensure compliance, subjects visited the study site for every drug administration. […] Blood samples were obtained at the same time point scheduled as the first day of the study. Adverse events were collected during the entire study period. This study was conducted in accordance with the Declaration of Helsinki, good clinical practice, and local regulation. […] TGA was performed using a Technothrombin® TGA kit (Technoclone, Vienna, Austria) on a fully automated, computer-controlled microplate reader (Flexstation 3; Molecular Devices, San Jose, CA, USA) with a 360 nm excitation wavelength and 460 nm emission wavelength. In brief, 30 μL of plasma samples were mixed with 25 μL of 400 μmol/L fluorogenic substrate ([…]; Bachem, Bubendorf, Switzerland). The assay was initiated by dispensing 10 μL of 5 pmol/L recombinant human tissue factor lipidated with synthetic phospholipids and 10 μL of 15 mmol/L CaCl2. TGA results are expressed as Cmax, AUC, Tmax, and lag time. For pharmacodynamic assessment, Phoenix Winnonlin® version 8.3 (Pharsight, Mountain View, CA, USA) was used to calculate AUEC with the linear trapezoidal method and Rmax was directly determined from individual profiles.

[7] = system: CES1; conditions: in vitro; cited from earlier work
[8] = 150 mg dabigatran etexilate alone
[9] = co-administered with simvastatin 40 mg once daily, day 7
[10] = human, oral, 150 mg dabigatran etexilate alone, plasma
[11] = human, plasma, oral, 150 mg dabigatran etexilate alone
[12] = before dabigatran etexilate administration, period with simvastatin 40 mg once daily, mean (SD)
[13] = before vs after once daily simvastatin for 7 days
[14] = dabigatran with simvastatin, mean (SD)

CCCCCCOC(=O)NC(=N)c1ccc(NCc2nc3cc(C(=O)N(CCC(=O)OCC)c4ccccn4)ccc3n2C)cc1 [Dabigatran etexilate]
adverse events, vital signs, clinical laboratory tests, electrocardiogram [1]: no adverse events or clinically significant changes | time of highest mean value of aPTT, PT, dPT and TT ([2]; after administration of dabigatran etexilate): 2 to 4 h | absolute bioavailability [3]: 7% | increase in exposure in mild renal impairment patients vs healthy subjects ([3]; single dose): 1.5 times | CL/F [4, 8]: 12,208.4 (16,447.7) L/h | CL/F [4, 9]: 5235.1 (2729.4) L/h | AUClast with simvastatin as % of value when administered alone [4]: 147% | Cmax with simvastatin as % of value when administered alone [4]: 138% | increase of AUClast after simvastatin co-administration [4]: 47% | AUC(0-inf) [4, 10]: 33.7 ng·h/mL | AUC(0-t) [4, 10]: 26.1 ng·h/mL | half-life [4, 11]: 3.4 h | Cmax [4, 11]: 24.5 ng/mL | MRT [4, 11]: 1.9 h | Tmax ([4]; human, plasma, oral, 150 mg dabigatran etexilate alone, read-out: Tmax): 1 h

CCC(C)(C)C(=O)O[C@H]1C[C@@H](C)C=C2C=C[C@H](C)[C@H](CC[C@@H]3C[C@@H](O)CC(=O)O3)[C@H]21 [Simvastatin]
effect on imidapril hydrolase activity [5]: inhibitory effects | Fibrinogen, baseline [2, 12]: 259.3 (39.4) mg/dL | PT (INR), baseline [2, 12]: 1.0 (0.1) INR | PT, baseline [2, 12]: 13.7 (0.6) s | TT, baseline [2, 12]: 16.2 (0.9) s | aPTT, baseline [2, 12]: 40.4 (3.3) s | dPT, baseline [2, 12]: 43.2 (1.8) s | anticoagulant effect of simvastatin without dabigatran, coagulation assays [2, 13]: no significant difference | elimination half-life [3]: about 2.8 h | Thrombin Generation Assay AUC (endogenous thrombin potential), baseline [6, 12]: 4073.1 (642.2) nM∙min | Thrombin Generation Assay Tmax, baseline [6, 12]: 7.3 (0.8) min | Thrombin Generation Assay lag time, baseline [6, 12]: 3.5 (0.5) min | anticoagulant effect of simvastatin without dabigatran, thrombin generation [6, 13]: no significant difference | effect on CES1-mediated hydrolysis of clopidogrel [7]: can inhibit

[H]/N=C(/N)c1ccc(NCc2nc3cc(C(=O)N(CCC(=O)O)c4ccccn4)ccc3n2C)cc1 [Dabigatran]
Fibrinogen AUEC ([2]; dabigatran alone, mean (SD)): 6249.8 (1133.1) h∙mg/dL | Fibrinogen Rmax ([2]; dabigatran alone, mean (SD)): 288.0 (55.9) mg/dL | PT (INR) AUEC ([2]; dabigatran alone, mean (SD)): 26.9 (1.4) | PT (INR) Rmax ([2]; dabigatran alone, mean (SD)): 1.3 (0.1) | PT (sec) AUEC ([2]; dabigatran alone, mean (SD)): 344.9 (14.3) s∙h | PT (sec) Rmax ([2]; dabigatran alone, mean (SD)): 16.6 (1.4) s | TT AUEC ([2]; dabigatran alone, mean (SD)): 1690.1 (535.9) s∙h | TT Rmax ([2]; dabigatran alone, mean (SD)): 169.2 (74.0) s | aPTT AUEC ([2]; dabigatran alone, mean (SD)): 1203.1 (153.1) s∙h | aPTT Rmax ([2]; dabigatran alone, mean (SD)): 69.5 (13.8) s | dPT (1:256) AUEC ([2]; dabigatran alone, mean (SD)): 1404.8 (184.7) s∙h | dPT (1:256) Rmax ([2]; dabigatran alone, mean (SD)): 87.5 (19.2) s | Fibrinogen AUEC [2, 14]: 6040.9 (758.3) h∙mg/dL | Fibrinogen Rmax [2, 14]: 309.3 (96.0) mg/dL | PT (INR) AUEC [2, 14]: 27.7 (1.2) | PT (INR) Rmax [2, 14]: 1.4 (0.1) | PT (sec) AUEC [2, 14]: 353.8 (12.3) s∙h | PT (sec) Rmax [2, 14]: 17.2 (1.4) s | TT AUEC [2, 14]: 1976.2 (643.8) s∙h | TT Rmax [2, 14]: 180.7 (50.4) s | aPTT AUEC [2, 14]: 1235.7 (131.7) s∙h | aPTT Rmax [2, 14]: 71.7 (12.2) s | dPT (1:256) AUEC [2, 14]: 1482.9 (144.9) s∙h | dPT (1:256) Rmax [2, 14]: 92.5 (15.3) s | influence of atorvastatin on pharmacokinetics or pharmacodynamics of dabigatran ([3]; healthy volunteers): No influence | fraction excreted via urine ([3]; intravenous dabigatran): 85% | CL/F [4, 8]: 362.3 (331.8) L/h | Tmax [4, 8]: 2 (1–4) h | CL/F [4, 9]: 275.8 (197.4) L/h | AUClast with simvastatin as % of value when administered alone [4]: 121% | Cmax with simvastatin as % of value when administered alone [4]: 124% | increase of AUClast after simvastatin co-administration [4]: 21% | AUC(0-inf) [4, 10]: 664 ng·h/mL | AUC(0-t) [4, 10]: 617 ng·h/mL | half-life [4, 11]: 6.1 h | Cmax [4, 11]: 87 ng/mL | MRT [4, 11]: 7.1 h | Thrombin Generation AUC AUEC ([6]; dabigatran alone, mean (SD)): 84,994.8 (14,977.1) nM∙min∙h | Thrombin Generation AUC Rmax ([6]; dabigatran alone, mean (SD)): 2423.6 (734.9) nM∙min | Thrombin Generation Lag time AUEC ([6]; dabigatran alone, mean (SD)): 131.7 (20.8) min∙h | Thrombin Generation Lag time Rmax ([6]; dabigatran alone, mean (SD)): 7.8 (1.7) min | Thrombin Generation AUC AUEC [6, 14]: 79,286.4 (10,676.3) nM∙min∙h | Thrombin Generation AUC Rmax [6, 14]: 2231.7 (326.0) nM∙min | Thrombin Generation Lag time AUEC [6, 14]: 128.5 (20.1) min∙h | Thrombin Generation Lag time Rmax [6, 14]: 8.0 (1.5) min
